Results on 85 molecules are retold here after a melting point compilation (Tetko et al.; mined from patent text by program, amines drawn as free bases though some values may be those of a salt).

One may read the melting point as the temperature, or range, at which the solid turns liquid.

For `COC(=O)c1ccccc1-c1cc(-c2ccc(Cl)cc2)no1`, the melting point is 89.5 to 91 °C.
Consider `COc1ccc(C(=O)NC(=O)Nc2ccc3c(c2)/C(=C/c2ccc[nH]2)C(=O)N3)cc1`, for which the melting point lay in the range of 278 to 283 °C.
Molecule `COc1cccc(CN=Cc2cccc(O)c2)c1` returned a melting point of 103 °C.
As for `Oc1ccc(CCNCC(O)c2ccc(OCc3ccccc3)cc2)cc1OCc1ccccc1` (stereo not given), the figure is 124 to 125 °C.
In turn, `CCc1coc2c(-c3ccc(F)cc3)c(-c3ccc(S(C)(=O)=O)cc3)nn12` returned a melting point of 177 to 179 °C.
Consider `CC(=O)Cn1cnc2c1c(=O)n(CC1CC1)c(=O)n2Cc1ccccc1`, for which the melting point turned out to be 138 °C.
`CCOC(=O)C1(c2ccccc2)CCN(C/C=C/C(C#N)(c2ccccc2)c2ccccc2)CC1` had a melting point of 100 to 102 °C.
Turning to `CCc1nc2c(C)c(S(=O)(=O)N(C)C)c(C)nc2n1Cc1ccc(-c2ccccc2-c2c(OC(C)C)c(=O)c2=O)cc1`, the melting point is 80 °C.
As for `Cc1cnc(CCc2ccccc2)n2c1c(CCCl)c1ccccc12`, the melting point was in the range of 144 to 145 °C.
In turn, `CCCc1c(OCCCCCOc2ccc3nc(CCC(=O)O)ccc3c2CCC(=O)O)ccc2c1OCCC2=O` yielded a melting point of 123 to 128 °C.
Turning to `C=CCC(C#N)(C#N)Cc1ccc(Br)cc1`, the melting point is 61.7 °C.
As for `CCOC(=O)[C@H](CCc1ccccc1)N(C(=O)OCC(Cl)(Cl)Cl)[C@@H](C)C(=O)O`, the melting point is 73 to 75 °C.
`Clc1ccc2c(c1)c(-c1ccccc1)c1n2CCNC1`: the melting point was 163 to 164 °C.
`O=C(O)c1ccc(C(=O)Nc2ccccc2C(c2ccc(O)cc2)c2ccc(O)cc2)cc1` displayed a melting point of 280 to 282 °C.
`CCCCCCCCCCCCSc1ccc2c(c1)C(=O)c1c(c(Oc3ccccc3)c3ccccc3c1Oc1ccccc1)C2=O` registered a melting point of 165 to 168 °C.
`COc1ccc2[nH]cc(CC(=O)N3CCN(c4ccc(NC(=N)c5cccs5)cc4)CC3)c2c1`: the melting point lay within 221 to 222 °C.
Molecule `CC(C)C(C)(NC(=O)c1nc2ccccc2cc1C(=O)O)C(N)=O` (stereo not given) yielded a melting point of 172 to 174 °C.
Consider `CN(C)S(=O)(=O)c1cn(C)c2cc(C(F)(F)F)ccc2c1=O`, for which the melting point lay within 221 to 223 °C.
The figure for `c1csc(-c2cnc(-c3cccs3)s2)c1` is 93 to 93.8 °C; for `CC(C)Oc1ccn2nc(-c3ccccc3)c(-c3ccc(=O)n(C(C)C)n3)c2c1` it is 162 to 163 °C; for `CCOC(=O)C(=CNCc1csnn1)C(=O)c1cc(F)c(F)cc1F` it is 176 to 178 °C.
`Cc1ccc(N(C)S(=O)(=O)c2cccs2)c2[nH]c(C3=NCC(C#N)S3)cc12` (stereo not given) came in with a melting point of 173 to 174 °C.
`NC(=O)[C@@H]1COCN1C(=O)CCl` yielded a melting point of 131 to 133 °C.
As for `CC(C)C[C@@H](C(=O)N[C@@H](C(C)C)[C@H](O)c1c(-c2ccccc2)c1=O)N(C)C(=O)OCc1ccccc1`, the figure is 112 °C.
Consider `CCOCc1cc2ccccc2oc1=Nc1ccc(CC)cc1`, for which the melting point lay in the range of 104 to 105 °C.
Turning to `COc1cccc2c(=O)c3c(O)cc(OCC(O)CO)cc3oc12` (stereo not given), the melting point amounted to 189 °C.
For `COC(=O)CCc1nc(-c2cccc(NC(=O)OC(C)(C)C)c2)no1`, the melting point fell in the range of 90 to 91 °C.
On to `CCn1nnn(CCN2CCC(=C3c4sccc4CCn4ccnc43)CC2)c1=O`, for which the melting point turned out to be 175 °C.
With `CCC(=O)Oc1ccc(NC(=O)OC(C)(C)C)cc1C(=O)O`, the melting point is 137 to 142 °C.
On to `CS(=O)(=O)c1cccc(NC(=O)c2ccccc2O)c1`, for which the melting point is 210 to 212 °C.
`O=C(CCCCl)c1ccc2c(c1)Cc1cc(C(=O)CCCCl)ccc1S2` registered a melting point of 115 to 116 °C.
As for `Cc1cc2ncn(C)c(=O)c2s1`, the figure is 188 to 190 °C; as for `COCCN1CCn2c1nc(C(=O)NCc1ccc(F)cc1)c(OCc1ccccc1)c2=O`, 150 °C; as for `CC(C)(C)C(=O)O[C@H]1[C@H](N2CCCC2)c2cc(C#N)ccc2OC1(C)C` (relative stereo), 109 to 110 °C.
As for `CN(CCc1ccc(Nc2ncc3c(n2)-c2ccccc2C(c2cccc(Br)c2)C3)cc1)CCc1ccccn1` (stereo not given), the figure is 75 to 77 °C; as for `Cc1cc(C)cc(NCc2ccc3nc(NCCCN4CCCCC4)n(Cc4nc(C)ccc4O)c3c2)c1`, 161 °C; as for `Cc1ccc(C(=O)OCc2c3ccccc3cc3ccccc23)cc1`, 124 °C.
In turn, `NC(=O)C1(c2ccc(Br)nc2)CCCC1` returned a melting point of 211 to 212 °C.
In the case of `Cc1ccc2c(c1)C=Cc1oc(C)nc1C2c1cn(C)c(=O)[nH]c1=S` (stereo not given), the melting point was in the range of 146 to 150 °C.
In turn, `CC(C)(C)c1cc(-c2nn(CCO)c3ncccc23)cc(C(C)(C)C)c1O` had a melting point of 135 to 137 °C.
`CNC(=O)N1N=C(c2ccc(N)cc2)c2cc(OC)ccc2CC1C` (stereo not given) displayed a melting point of 190 to 191 °C.
`C=C(C)C(=O)OCCC(=O)Oc1ccc(-c2cc(OC(=O)C(=C)C)cc(-c3ccc(OC(=O)CCOC(=O)C(=C)C)cc3)c2)cc1` displayed a melting point of 88 °C.
In turn, `CCOC(=O)c1cc(C)n(-c2cccc(C)c2)c1-c1ccccc1` returned a melting point of 92.5 to 94 °C.
On to `CCC(=CC(CNC(=O)c1ccncc1)=NO)C(C)[N+](=O)[O-]` (stereo not given), for which the melting point is 145 to 148 °C.
The figure for `COc1cccc(C(=O)CS(C)=O)c1N` (stereo not given) is 106 to 108 °C.
In the case of `COC(=O)c1nn(Cc2cccc(OC)c2)c2c1CCc1cc(OCc3cncnc3)ccc1-2`, the melting point was determined as 184 °C.
The molecule `CON(c1ccc([N+](=O)[O-])cc1C#N)S(=O)(=O)c1ccc(C(F)(F)F)cc1` came in with a melting point of 134 to 135 °C.
As for `CCn1nc(-c2cccs2)c(C(=O)OCCOC(C)=O)c(Nc2cnccc2C)c1=O`, the figure is 161 to 162 °C.
The figure for `CC(C)c1nc(CN2C(=O)C3(COc4cc5c(cc43)OCO5)c3ccccc32)co1` (stereo not given) is 118 to 120 °C; for `CC1(C)CC(NC(=O)Nc2ccccc2)c2cc(C#N)ccc21` (stereo not given) it is 150 to 152 °C.
Take `CC(C)(C)C(NC(=O)c1cccc2c1-c1ccccc1C2=O)Nc1c(Nc2cccnc2)c(=O)c1=O` (stereo not given): the melting point is 201 to 202 °C.
Molecule `O=c1[nH]c2c(cc1-c1nnc(C3CC3)o1)CN(Cc1ccccc1)CC2` displayed a melting point of 212 to 214 °C.
Molecule `CCCC1N=C2C(=C(C)C(Cl)=NC2(N)CCOCCNC(=O)c2ccccc2)N1` (stereo not given) yielded a melting point of 188 to 189 °C.
`CCOCc1nc2c(N)nc(C)c(C)c2n1CCCNC(=O)C(C)C` registered a melting point of 179 to 180 °C.
In turn, `Clc1ccc2c(c1)N=C1C=CC=CN1CO2` had a melting point of 175 to 177 °C.
The figure for `NS(=O)(=O)CCCSc1ccc2nc(Cl)cn2n1` is 117 to 118 °C; for `CCOC(=O)CCCCCCCCCCNC(=O)CN(CCN(CCN(CC(=O)O)CC(=O)O)CC(=O)O)CC(=O)O` it is 155 to 157 °C; for `Cc1cc(Cl)ccc1-c1nc(=O)c2ccccc2s1` it is 134 °C.
With `CN(CCN1CCC(=C(c2ccc(F)cc2)c2ccc(F)cc2)CC1)c1nc(=O)cc[nH]1`, the melting point was 164 to 165 °C.
For `Cc1ccc(S(=O)(=O)N2CCCC2c2ccc(N(C)C)c(F)c2)cc1` (racemic), the melting point was determined as 66 °C.
The molecule `O=C(Cl)c1ccc(OC(=O)c2cccc(C(=O)Oc3ccc(C(=O)Cl)cc3)c2)cc1` returned a melting point of 204 °C.
Turning to `N#Cc1ccccc1-c1cc(-c2cnc3nccnn23)ccc1F`, the melting point lay in the range of 211 to 215 °C.
For `CC(C)NCC(=O)Nc1cccc2c1C(=O)c1c(NC(=O)CNC(C)C)cccc1C2=O`, the melting point was 196 to 197 °C.
As for `Oc1cc(COCc2ccccc2)ncn1`, the figure is 102 to 103 °C; as for `C#CCNc1cc(F)c([N+](=O)[O-])cc1[N+](=O)[O-]`, 113 to 115 °C.
Consider `O=C1Cc2cc3ccccc3cc2C(c2ccccc2Cl)N1` (stereo not given), for which the melting point fell in the range of 234 to 237 °C.
For `Cc1cc2c(c(C(C)(C)C)c1)OC(=O)C2=C1C(=O)Oc2c1cc(C)cc2C(C)(C)C`, the melting point was in the range of 253 to 255 °C.
As for `O=C(N[C@H]1CCCNC1=O)c1c(F)cccc1F`, the figure is 190 to 194 °C.
Consider `CC(C)(C(=O)O)c1ccc(Cl)c([N+](=O)[O-])c1`, for which the melting point worked out at 157 °C.
The molecule `Cc1cc(OC2SCC(O)C(O)C2O)cc(C)c1-c1ccncc1` (stereo not given) gave a melting point of 106 to 107 °C.
On to `COc1cc(Nc2nccc(-c3ccc(CO)cc3)n2)cc(OC)c1OC`, for which the melting point lay within 171 to 172 °C.
The molecule `Cc1cn2c(N)c(Cl)cc(C(=O)NCC3CCN(CC(C)C)CC3)c2n1` came in with a melting point of 216 to 219 °C.
For the molecule `COc1ccc2c3c(ccc2c1)OC(=O)CC3`, the melting point fell in the range of 122 to 123 °C.
Molecule `CCOC(=N)c1ccccc1-c1ccc(Cn2c(OCC)nc3cccc(C(=O)OC)c32)cc1` gave a melting point of 105 to 106 °C.
As for `O=C(O)CCCCC=Cc1cn(-c2cccnc2)c2ccccc12`, the figure is 124 to 125 °C.
`COc1ccc2c(c1OC)C(=O)O[C@@H]2[C@H]1c2c(c(I)c3c(c2OC)OCO3)CCN1C` registered a melting point of 172 to 173 °C.
`NC(=O)c1nc(-c2cccc(O)c2)nc2c1[nH]c(=O)n2[C@H]1CC[C@H](N)CC1` gave a melting point of 299 to 301 °C.
In turn, `CCCc1nc2c(N)nc3ccccc3c2n1CCCCN(O)C(=O)NC(C)C` showed a melting point of 158 to 160 °C.
`Cc1cc(C(C)(C)O)ccc1-c1ccccc1` returned a melting point of 60 to 64 °C.
With `COC(=O)c1c(N)ncn1C1c2ccccc2CC1(C)C` (stereo not given), the melting point was 100 to 105 °C.
As for `CC1CC(=O)NN=C1c1ccc(-c2ccc(=O)[nH]n2)cc1` (stereo not given), the figure is more than 250 °C; as for `CCCCCCCCCCCCCCCCCCOC(=O)CCC1CCCCC1(c1ccc(O)c(C(C)(C)C)c1)c1ccc(O)c(C(C)(C)C)c1` (stereo not given), 155 °C; as for `O=[N+]([O-])c1ccc(NN=CCc2cccnc2)cc1`, 212 to 214 °C.
As for `CCC(C)C(NC(c1ccccc1)c1ccccc1)P(O)O` (stereo not given), the melting point fell in the range of 174 to 176 °C.
The figure for `Cc1nc2c(N)nc3c(c2n1CCCCS(=O)(=O)C(C)(C)C)CCCC3` is 208 to 210 °C.
